Target: CDK2 (human) (UniProt P24941)
Test: Enzyme Assay

SMILES	IC50 [nM]
COc1nc(C)c(-c2ccnc(Nc3ccc(O)cc3)n2)s1	50
COc1nc(C)c(-c2ccnc(Nc3ccc(C)c(I)c3)n2)s1	700
COc1nc(C)c(-c2ccnc(Nc3ccc(Cl)cc3)n2)s1	110
COc1nc(C)c(-c2ccnc(Nc3ccc(C)c([N+](=O)[O-])c3)n2)s1	110
COc1nc(C)c(-c2ccnc(Nc3ccc(F)cc3)n2)s1	120
COc1nc(C)c(-c2ccnc(Nc3cccc(O)c3)n2)s1	120
Cc1nc(C)c(-c2ccnc(Nc3ccc(CCO)cc3)n2)s1	470
COc1ccc(Nc2nccc(-c3sc(OC)nc3C)n2)cc1	250
COc1ccc(Nc2nccc(-c3sc(C)nc3C)n2)cc1O	140
COc1nc(C)c(-c2ccnc(Nc3ccc(N(C)C)cc3)n2)s1	750

Further compounds by falling IC50, results first:

IC50 [nM]	SMILES
1180	COc1nc(C)c(-c2ccnc(Nc3ccc(Cl)c(C)c3)n2)s1
680	Cc1nc(N)sc1-c1ccnc(Nc2ccc(C(F)(F)F)cc2)n1
130	COc1nc(C)c(-c2ccnc(Nc3ccc(F)c(C)c3)n2)s1
120	COc1nc(C)c(-c2ccnc(Nc3ccc(F)c([N+](=O)[O-])c3)n2)s1
60	COc1nc(C)c(-c2ccnc(Nc3cccc([N+](=O)[O-])c3)n2)s1
